# Measured values as given in article PMC9150124, “Design of a Potent, Selective, and Brain-Penetrant Inhibitor of Wnt-Deactivating Enzyme Notum by Optimization of a Crystallographic Fragment Hit” (Journal of Medicinal Chemistry, 2022).
# Assays:
# Assay in all cases: SelectScreen kinase profiling, SSBK LanthaScreen Binding SP Technology
# [1] = target: kinase named in conditions (Homo sapiens, UniProt Q9UPZ9); conditions: ICK, 10 μM
# Protocol: (§1) Kinase selectivity screening was performed by Thermo Fisher Scientific (Paisley, U.K.) in their SelectScreen Biochemical Kinase Profiling Service. Assay information and data are presented in the Supporting Information.
# (§2) Kinase selectivity screening was performed by ThermoFisher Scientific (Paisley, U.K.) in their SelectScreenTM
# (§3) Biochemical Kinase Profiling service .
# (§4) Illustration reproduced courtesy of Cell Signaling technology, Inc.
# (§5) (B) Illustration of phylogenetic tree of kinases screened.
# [2] = target: kinase named in conditions (Homo sapiens, UniProt Q9Y572); conditions: RIPK3, 10 μM
# Protocol: as §1, §2, §3, §4, §5
# [3] = target: kinase named in conditions (Homo sapiens, UniProt P07949, G691S); conditions: RET G691S, 10 μM
# Protocol: as §1, §2, §3, §4, §5
# [4] = target: kinase named in conditions (Homo sapiens, UniProt P10721, D820E); conditions: KIT D820E, 10 μM
# Protocol: as §1, §2, §3, §4, §5
# [5] = target: kinase named in conditions (Homo sapiens, UniProt Q02779); conditions: MAP3K10 (MLK2), 10 μM
# Protocol: as §1, §2, §3, §4, §5
# [6] = target: kinase named in conditions (Homo sapiens, UniProt Q9UF33); conditions: EPHA6, 10 μM
# Protocol: as §1, §2, §3, §4, §5
# [7] = target: kinase named in conditions (Homo sapiens, UniProt O75385); conditions: ULK1, 10 μM
# Protocol: as §1, §2, §3, §4, §5
# [8] = target: kinase named in conditions (Homo sapiens, UniProt Q99759); conditions: MAP3K3 (MEKK3), 10 μM
# Protocol: as §1, §2, §3, §4, §5
# [9] = target: kinase named in conditions (Homo sapiens, UniProt Q8IVH8); conditions: MAP4K3 (GLK), 10 μM
# Protocol: as §1, §2, §3, §4, §5
# [10] = target: kinase named in conditions (Homo sapiens, UniProt P53779); conditions: MAPK10 (JNK3), 10 μM
# Protocol: as §1, §2, §3, §4, §5
# [11] = target: kinase named in conditions (Homo sapiens, UniProt Q16832, N456S); conditions: DDR2 N456S, 10 μM
# Protocol: as §1, §2, §3, §4, §5
# [12] = target: kinase named in conditions (Homo sapiens, UniProt Q9Y2U5); conditions: MAP3K2 (MEKK2), 10 μM
# Protocol: as §1, §2, §3, §4, §5
# [13] = target: kinase named in conditions (Homo sapiens, UniProt O75460); conditions: ERN1, 10 μM
# Protocol: as §1, §2, §3, §4, §5
# [14] = target: kinase named in conditions (Homo sapiens, UniProt Q96RR4); conditions: CAMKK2 (CaMKK beta), 10 μM
# Protocol: as §1, §2, §3, §4, §5
# [15] = target: kinase named in conditions (Homo sapiens, UniProt P07949, M918T); conditions: RET M918T, 10 μM
# Protocol: as §1, §2, §3, §4, §5
# [16] = target: kinase named in conditions (Homo sapiens, UniProt P07949, V804M); conditions: RET V804M, 10 μM
# Protocol: as §1, §2, §3, §4, §5
# [17] = target: kinase named in conditions (Homo sapiens, UniProt Q8N5S9); conditions: CAMKK1 (CAMKKA), 10 μM
# Protocol: as §1, §2, §3, §4, §5
# [18] = target: kinase named in conditions (Homo sapiens, UniProt Q9UM73, C1156Y); conditions: ALK C1156Y, 10 μM
# Protocol: as §1, §2, §3, §4, §5
# [19] = target: kinase named in conditions (Homo sapiens, UniProt Q15375); conditions: EPHA7, 10 μM
# Protocol: as §1, §2, §3, §4, §5
# [20] = target: kinase named in conditions (Homo sapiens, UniProt Q86YV6); conditions: MYLK4, 10 μM
# Protocol: as §1, §2, §3, §4, §5
# [21] = target: kinase named in conditions (Homo sapiens, UniProt P00519, Q252H); conditions: ABL1 Q252H, 10 μM
# Protocol: as §1, §2, §3, §4, §5
# [22] = target: kinase named in conditions (Homo sapiens, UniProt P29320); conditions: EPHA3, 10 μM
# Protocol: as §1, §2, §3, §4, §5
# [23] = target: kinase named in conditions (Homo sapiens, UniProt Q9UM73, L1196M); conditions: ALK L1196M, 10 μM
# Protocol: as §1, §2, §3, §4, §5
# [24] = target: kinase named in conditions (Homo sapiens, UniProt P50750); conditions: 10 μM
# Protocol: as §1, §2, §3, §4, §5
# [25] = target: kinase named in conditions (Homo sapiens, UniProt O43353); conditions: RIPK2, 10 μM
# Protocol: as §1, §2, §3, §4, §5
# [26] = target: kinase named in conditions (Homo sapiens, UniProt P30530, R499C); conditions: AXL R499C, 10 μM
# Protocol: as §1, §2, §3, §4, §5
# [27] = target: kinase named in conditions (Homo sapiens, UniProt P52564); conditions: MAP2K6 (MKK6), 10 μM
# Protocol: as §1, §2, §3, §4, §5
# [28] = target: kinase named in conditions (Homo sapiens, UniProt Q08345); conditions: DDR1, 10 μM
# Protocol: as §1, §2, §3, §4, §5
# [29] = target: kinase named in conditions (Homo sapiens, UniProt P42680); conditions: TEC, 10 μM
# Protocol: as §1, §2, §3, §4, §5
# [30] = target: kinase named in conditions (Homo sapiens, UniProt O94768); conditions: STK17B (DRAK2), 10 μM
# Protocol: as §1, §2, §3, §4, §5
# [31] = target: kinase named in conditions (Homo sapiens, UniProt Q13705); conditions: ACVR2B, 10 μM
# Protocol: as §1, §2, §3, §4, §5
# [32] = target: kinase named in conditions (Homo sapiens, UniProt Q9Y616); conditions: IRAK3, 10 μM
# Protocol: as §1, §2, §3, §4, §5
# [33] = target: kinase named in conditions (Homo sapiens, UniProt Q9BYP7); conditions: WNK3, 10 μM
# Protocol: as §1, §2, §3, §4, §5
# [34] = target: kinase named in conditions (Homo sapiens, UniProt Q8NI60); conditions: ADCK3, 10 μM
# Protocol: as §1, §2, §3, §4, §5
# Chain of kinase named in conditions (Homo sapiens, UniProt P50750) (P50750 whole entry): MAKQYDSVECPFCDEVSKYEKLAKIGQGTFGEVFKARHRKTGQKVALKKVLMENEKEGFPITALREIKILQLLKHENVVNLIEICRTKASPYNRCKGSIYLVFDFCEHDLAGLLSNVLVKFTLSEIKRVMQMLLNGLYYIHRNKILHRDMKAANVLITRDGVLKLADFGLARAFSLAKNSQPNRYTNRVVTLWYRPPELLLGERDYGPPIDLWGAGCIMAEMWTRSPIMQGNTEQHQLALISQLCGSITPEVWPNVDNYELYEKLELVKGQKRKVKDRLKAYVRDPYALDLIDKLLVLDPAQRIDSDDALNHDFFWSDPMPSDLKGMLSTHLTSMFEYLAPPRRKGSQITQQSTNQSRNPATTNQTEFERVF
# Chain of kinase named in conditions (Homo sapiens, UniProt P52564) (P52564 whole entry): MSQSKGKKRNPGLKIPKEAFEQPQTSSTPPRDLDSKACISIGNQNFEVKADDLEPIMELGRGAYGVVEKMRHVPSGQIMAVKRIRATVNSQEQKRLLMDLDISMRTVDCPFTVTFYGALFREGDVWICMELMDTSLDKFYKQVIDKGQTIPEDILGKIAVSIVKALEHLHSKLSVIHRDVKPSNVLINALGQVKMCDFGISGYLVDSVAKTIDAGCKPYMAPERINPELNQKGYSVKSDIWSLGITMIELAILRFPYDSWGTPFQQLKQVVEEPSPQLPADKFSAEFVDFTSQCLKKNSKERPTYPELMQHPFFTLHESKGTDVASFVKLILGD
# Chain of kinase named in conditions (Homo sapiens, UniProt P07949, M918T) (P07949 29-1114 M918T): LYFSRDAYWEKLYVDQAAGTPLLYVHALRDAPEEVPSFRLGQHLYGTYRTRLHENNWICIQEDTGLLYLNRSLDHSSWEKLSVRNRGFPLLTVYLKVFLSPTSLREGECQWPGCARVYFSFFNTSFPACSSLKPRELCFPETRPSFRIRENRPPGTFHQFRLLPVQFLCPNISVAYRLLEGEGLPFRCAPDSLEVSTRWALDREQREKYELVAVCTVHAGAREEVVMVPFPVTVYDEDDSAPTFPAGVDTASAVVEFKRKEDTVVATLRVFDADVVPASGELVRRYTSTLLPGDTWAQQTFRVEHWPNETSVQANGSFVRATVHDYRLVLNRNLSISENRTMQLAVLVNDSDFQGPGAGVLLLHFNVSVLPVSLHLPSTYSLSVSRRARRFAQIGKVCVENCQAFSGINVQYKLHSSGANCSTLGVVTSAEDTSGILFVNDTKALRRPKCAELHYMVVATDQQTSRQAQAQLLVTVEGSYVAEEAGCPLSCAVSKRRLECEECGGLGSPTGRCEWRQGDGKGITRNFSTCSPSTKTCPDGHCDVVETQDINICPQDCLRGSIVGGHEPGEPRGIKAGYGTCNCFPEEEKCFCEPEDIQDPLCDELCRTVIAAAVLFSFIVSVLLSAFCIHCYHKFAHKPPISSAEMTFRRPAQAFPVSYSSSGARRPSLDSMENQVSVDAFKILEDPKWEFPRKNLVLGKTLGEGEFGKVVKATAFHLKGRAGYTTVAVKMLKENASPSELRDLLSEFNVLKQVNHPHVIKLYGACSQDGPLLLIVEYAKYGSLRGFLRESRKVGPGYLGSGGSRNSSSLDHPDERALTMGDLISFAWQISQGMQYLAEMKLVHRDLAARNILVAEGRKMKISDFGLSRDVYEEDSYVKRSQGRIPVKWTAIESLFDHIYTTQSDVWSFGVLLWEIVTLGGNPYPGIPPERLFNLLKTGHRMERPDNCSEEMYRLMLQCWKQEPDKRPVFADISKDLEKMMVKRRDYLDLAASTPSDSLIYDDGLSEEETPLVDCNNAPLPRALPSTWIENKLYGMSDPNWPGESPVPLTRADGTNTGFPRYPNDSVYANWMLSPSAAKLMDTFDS
# Chain of kinase named in conditions (Homo sapiens, UniProt Q13705) (Q13705 19-512): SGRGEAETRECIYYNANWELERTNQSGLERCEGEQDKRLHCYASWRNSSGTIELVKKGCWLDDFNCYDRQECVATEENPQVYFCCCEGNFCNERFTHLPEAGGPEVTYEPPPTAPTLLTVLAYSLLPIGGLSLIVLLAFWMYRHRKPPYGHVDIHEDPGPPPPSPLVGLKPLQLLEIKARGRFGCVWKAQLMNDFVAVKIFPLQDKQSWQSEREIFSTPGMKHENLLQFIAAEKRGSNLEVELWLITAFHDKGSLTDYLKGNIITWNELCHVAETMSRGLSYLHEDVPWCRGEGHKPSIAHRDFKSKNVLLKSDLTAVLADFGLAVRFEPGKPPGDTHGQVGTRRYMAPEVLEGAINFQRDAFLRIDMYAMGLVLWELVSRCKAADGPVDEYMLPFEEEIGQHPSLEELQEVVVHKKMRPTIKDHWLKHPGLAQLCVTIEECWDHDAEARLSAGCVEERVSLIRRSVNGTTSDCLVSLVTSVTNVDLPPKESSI
# Chain of kinase named in conditions (Homo sapiens, UniProt P10721, D820E) (P10721 26-976 D820E): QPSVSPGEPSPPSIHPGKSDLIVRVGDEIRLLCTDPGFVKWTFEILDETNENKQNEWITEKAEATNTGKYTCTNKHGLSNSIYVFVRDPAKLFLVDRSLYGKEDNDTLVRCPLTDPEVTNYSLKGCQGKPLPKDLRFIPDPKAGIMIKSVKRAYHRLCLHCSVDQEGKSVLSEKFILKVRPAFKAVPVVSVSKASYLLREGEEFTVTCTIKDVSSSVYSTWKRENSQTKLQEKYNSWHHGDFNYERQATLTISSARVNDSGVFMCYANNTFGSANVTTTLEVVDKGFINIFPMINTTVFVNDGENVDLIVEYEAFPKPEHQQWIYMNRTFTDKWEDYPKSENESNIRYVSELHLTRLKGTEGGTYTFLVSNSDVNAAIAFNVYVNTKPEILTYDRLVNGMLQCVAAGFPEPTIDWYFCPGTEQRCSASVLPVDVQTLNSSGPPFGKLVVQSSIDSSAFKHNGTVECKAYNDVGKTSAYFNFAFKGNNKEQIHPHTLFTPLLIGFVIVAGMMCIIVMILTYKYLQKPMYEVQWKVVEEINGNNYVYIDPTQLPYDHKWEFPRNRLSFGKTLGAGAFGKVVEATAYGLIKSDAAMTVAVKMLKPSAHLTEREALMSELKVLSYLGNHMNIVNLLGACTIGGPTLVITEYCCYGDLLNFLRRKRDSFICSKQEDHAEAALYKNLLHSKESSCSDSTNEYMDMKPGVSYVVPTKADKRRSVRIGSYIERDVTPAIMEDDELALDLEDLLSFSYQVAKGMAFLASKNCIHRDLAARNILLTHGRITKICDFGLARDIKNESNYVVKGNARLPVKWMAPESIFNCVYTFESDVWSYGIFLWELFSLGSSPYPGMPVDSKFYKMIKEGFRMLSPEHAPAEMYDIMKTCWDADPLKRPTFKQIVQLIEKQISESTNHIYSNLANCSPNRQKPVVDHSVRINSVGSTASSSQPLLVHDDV
# Chain of kinase named in conditions (Homo sapiens, UniProt Q9UF33) (Q9UF33 23-1036): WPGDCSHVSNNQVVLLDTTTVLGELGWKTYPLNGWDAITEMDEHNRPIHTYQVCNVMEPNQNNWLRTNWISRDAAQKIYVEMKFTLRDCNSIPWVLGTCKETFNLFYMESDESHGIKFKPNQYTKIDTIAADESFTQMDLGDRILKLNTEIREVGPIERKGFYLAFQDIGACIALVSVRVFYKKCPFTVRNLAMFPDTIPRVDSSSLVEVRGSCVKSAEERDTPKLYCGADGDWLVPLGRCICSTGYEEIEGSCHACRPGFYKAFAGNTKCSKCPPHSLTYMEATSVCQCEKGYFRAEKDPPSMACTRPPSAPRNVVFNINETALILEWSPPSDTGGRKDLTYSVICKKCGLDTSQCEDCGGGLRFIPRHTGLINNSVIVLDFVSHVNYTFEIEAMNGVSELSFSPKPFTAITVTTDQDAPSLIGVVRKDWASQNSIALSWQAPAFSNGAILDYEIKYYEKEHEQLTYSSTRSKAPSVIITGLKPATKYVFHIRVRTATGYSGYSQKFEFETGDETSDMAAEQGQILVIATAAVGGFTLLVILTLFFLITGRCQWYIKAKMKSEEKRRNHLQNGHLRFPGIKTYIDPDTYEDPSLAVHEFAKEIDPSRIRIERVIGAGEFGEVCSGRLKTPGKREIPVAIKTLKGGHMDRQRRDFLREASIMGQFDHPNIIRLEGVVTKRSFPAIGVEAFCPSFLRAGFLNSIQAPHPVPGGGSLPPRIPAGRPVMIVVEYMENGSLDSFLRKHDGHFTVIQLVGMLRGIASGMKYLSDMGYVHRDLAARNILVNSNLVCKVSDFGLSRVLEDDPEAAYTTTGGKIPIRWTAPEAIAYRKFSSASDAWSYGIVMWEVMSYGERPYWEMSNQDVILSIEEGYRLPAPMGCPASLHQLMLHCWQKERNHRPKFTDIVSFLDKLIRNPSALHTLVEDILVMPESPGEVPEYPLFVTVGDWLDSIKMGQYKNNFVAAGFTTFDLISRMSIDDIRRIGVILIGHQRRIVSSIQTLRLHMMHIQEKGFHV
# Chain of kinase named in conditions (Homo sapiens, UniProt Q8N5S9) (Q8N5S9 whole entry): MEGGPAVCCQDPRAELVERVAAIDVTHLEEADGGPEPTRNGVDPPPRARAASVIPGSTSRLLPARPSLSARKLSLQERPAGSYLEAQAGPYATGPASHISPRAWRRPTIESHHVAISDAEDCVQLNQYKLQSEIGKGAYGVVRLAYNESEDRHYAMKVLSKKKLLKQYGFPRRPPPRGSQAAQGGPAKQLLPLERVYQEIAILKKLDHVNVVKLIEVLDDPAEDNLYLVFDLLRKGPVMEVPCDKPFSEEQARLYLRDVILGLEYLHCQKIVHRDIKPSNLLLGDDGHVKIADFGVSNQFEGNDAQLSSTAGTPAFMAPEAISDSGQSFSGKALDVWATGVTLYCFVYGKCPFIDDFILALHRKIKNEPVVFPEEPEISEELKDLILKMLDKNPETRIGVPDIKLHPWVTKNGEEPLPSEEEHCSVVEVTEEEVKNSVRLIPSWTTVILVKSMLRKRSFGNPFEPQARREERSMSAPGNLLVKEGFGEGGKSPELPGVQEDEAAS
# Chain of kinase named in conditions (Homo sapiens, UniProt P07949, V804M) (P07949 29-1114 V804M): as the sequence (P07949 29-1114 M918T) above, with V776M, T890M counted along it
# Chain of kinase named in conditions (Homo sapiens, UniProt P07949, G691S) (P07949 29-1114 G691S): as the sequence (P07949 29-1114 M918T) above, with G663S, T890M counted along it
smiles,measurement,setting,value
"FC(F)(F)c1c(Cl)ccc(-n2ccnn2)c1Cl [8l, 1-(2,4-Dichloro-3-(trifluoromethyl)phenyl)-1H-1,2,3-triazole]",inhibition at 10 µM,[1],-6%
same,inhibition at 10 µM,[2],10%
same,inhibition at 10 µM,[3],-8%
same,inhibition at 10 µM,[4],-4%
same,inhibition at 10 µM,[5],1%
same,inhibition at 10 µM,[6],1%
same,inhibition at 10 µM,[7],-2%
same,inhibition at 10 µM,[8],-14%
same,inhibition at 10 µM,[9],6%
same,inhibition at 10 µM,[10],-1%
same,inhibition at 10 µM,[11],26%
same,inhibition at 10 µM,[12],11%
same,inhibition at 10 µM,[13],-4%
same,inhibition at 10 µM,[14],-1%
same,inhibition at 10 µM,[15],9%
same,inhibition at 10 µM,[16],8%
same,inhibition at 10 µM,[17],-3%
same,inhibition at 10 µM,[18],4%
same,inhibition at 10 µM,[19],0%
same,inhibition at 10 µM,[20],-5%
same,inhibition at 10 µM,[21],10%
same,inhibition at 10 µM,[22],7%
same,inhibition at 10 µM,[23],-3%
same,inhibition at 10 µM,[24]; CDK9 (Inactive),-5%
same,inhibition at 10 µM,[24]; CDK9/cyclin K,-10%
same,inhibition at 10 µM,[25],5%
same,inhibition at 10 µM,[26],5%
same,inhibition at 10 µM,[27],2%
same,inhibition at 10 µM,[28],0%
same,inhibition at 10 µM,[29],0%
same,inhibition at 10 µM,[30],14%
same,inhibition at 10 µM,[31],1%
same,inhibition at 10 µM,[32],15%
same,inhibition at 10 µM,[33],-10%
same,inhibition at 10 µM,[34],12%
